# According to PubChem BioAssay (NCI):
#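 GI50 = concentration required for 50% inhibition of growth. TGI: total growth inhibition.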
# Legend:
# Test in all cases: DTP human tumour cell line panel, 384-well format
# NCI/ADR-RES ovarian = system: NCI/ADR-RES ovarian
# SF-268 CNS = system: SF-268 CNS
# TK-10 renal = system: TK-10 renal
# SK-MEL-2 melanoma = system: SK-MEL-2 melanoma
# DU-145 prostate = system: DU-145 prostate
# SR leukemia = system: SR leukemia
# MDA-MB-231 breast = system: MDA-MB-231 breast
# M14 melanoma = system: M14 melanoma
# IGROV1 ovarian = system: IGROV1 ovarian
# KM12 colon = system: KM12 colon
# CCRF-CEM leukemia = system: CCRF-CEM leukemia
# BT-549 breast = system: BT-549 breast
# A549 NSCLC = system: A549 NSCLC
# NCI-H226 lung = system: NCI-H226 lung
# COLO 205 colon = system: COLO 205 colon
# MOLT-4 leukemia = system: MOLT-4 leukemia
# HOP-62 NSCLC = system: HOP-62 NSCLC
# SNB-19 CNS = system: SNB-19 CNS
# EKVX NSCLC = system: EKVX NSCLC
# HL-60(TB) leukemia = system: HL-60(TB) leukemia
# SF-539 CNS = system: SF-539 CNS
# OVCAR-8 ovarian = system: OVCAR-8 ovarian
# SK-MEL-28 melanoma = system: SK-MEL-28 melanoma
# UACC-62 melanoma = system: UACC-62 melanoma
# SK-MEL-5 melanoma = system: SK-MEL-5 melanoma
# CAKI-1 renal = system: CAKI-1 renal
# 786-0 renal = system: 786-0 renal
# MCF7 breast = system: MCF7 breast
smiles,measurement,setting,value
C[C@]1(c2nc3c(C(N)=O)cccc3[nH]2)CCCN1,GI50,NCI/ADR-RES ovarian,> 100 µM
same,TGI,NCI/ADR-RES ovarian,> 100 µM
same,GI50,SF-268 CNS,> 100 µM
same,TGI,SF-268 CNS,> 100 µM
same,GI50,TK-10 renal,> 100 µM
same,TGI,TK-10 renal,> 100 µM
same,GI50,SK-MEL-2 melanoma,> 100 µM
same,TGI,SK-MEL-2 melanoma,> 100 µM
same,GI50,DU-145 prostate,> 100 µM
same,TGI,DU-145 prostate,> 100 µM
same,GI50,SR leukemia,14.5 µM
same,TGI,SR leukemia,28.3 µM
same,GI50,MDA-MB-231 breast,> 100 µM
same,TGI,MDA-MB-231 breast,> 100 µM
same,GI50,M14 melanoma,> 100 µM
same,TGI,M14 melanoma,> 100 µM
same,GI50,IGROV1 ovarian,> 100 µM
same,TGI,IGROV1 ovarian,> 100 µM
same,GI50,KM12 colon,> 100 µM
same,TGI,KM12 colon,> 100 µM
same,GI50,CCRF-CEM leukemia,> 100 µM
same,TGI,CCRF-CEM leukemia,> 100 µM
same,GI50,BT-549 breast,> 100 µM
same,TGI,BT-549 breast,> 100 µM
same,GI50,A549 NSCLC,> 100 µM
same,TGI,A549 NSCLC,> 100 µM
same,GI50,NCI-H226 lung,90.3 µM
same,TGI,NCI-H226 lung,> 100 µM
same,GI50,COLO 205 colon,> 100 µM
same,TGI,COLO 205 colon,> 100 µM
same,GI50,MOLT-4 leukemia,29.6 µM
same,TGI,MOLT-4 leukemia,> 100 µM
same,GI50,HOP-62 NSCLC,40.7 µM
same,TGI,HOP-62 NSCLC,> 100 µM
same,GI50,SNB-19 CNS,> 100 µM
same,TGI,SNB-19 CNS,> 100 µM
same,GI50,EKVX NSCLC,> 100 µM
same,TGI,EKVX NSCLC,> 100 µM
same,GI50,HL-60(TB) leukemia,> 100 µM
same,TGI,HL-60(TB) leukemia,> 100 µM
same,GI50,SF-539 CNS,> 100 µM
same,TGI,SF-539 CNS,> 100 µM
same,GI50,OVCAR-8 ovarian,> 100 µM
same,TGI,OVCAR-8 ovarian,> 100 µM
same,GI50,SK-MEL-28 melanoma,> 100 µM
same,TGI,SK-MEL-28 melanoma,> 100 µM
same,GI50,UACC-62 melanoma,95.6 µM
same,TGI,UACC-62 melanoma,> 100 µM
same,GI50,SK-MEL-5 melanoma,> 100 µM
same,TGI,SK-MEL-5 melanoma,> 100 µM
same,GI50,CAKI-1 renal,> 100 µM
same,TGI,CAKI-1 renal,> 100 µM
same,GI50,786-0 renal,> 100 µM
same,TGI,786-0 renal,> 100 µM
same,GI50,MCF7 breast,72.9 µM
